Results published in patent US12144792B2, “Therapeutic agents for neurodegenerative diseases” (priority 2016, dated 2024).

Columns and labels:
[1] = tested on: Npc1^−/− mice; assay: Motor function analysis (Open Field Activity Monitor); type: in vivo, mouse; details: 0.1 g/kg from weaning, nine weeks of age, vs untreated littermates
Protocol: Separate groups of Npc1^−/− and Npc1^+/+ mice were left untreated, as controls. Motor function analysis was performed on mice at eight and nine weeks of age using an Open Field Activity Monitor according to manufacturer's instructions (Linton Instruments, Amlogger Software). Each mouse was placed in a plastic cage with bedding and analysed for five minutes. Rears were counted manually. Motor function parameters measured were: • 1. Centre Rearing: mice rearing on hind legs unsupported; • 2. Rearing: mice rearing on hind legs with and without the support of cage walls; • 3. Activity: regular movement of the animal including walks; • 4. Front to Back (FR) count: movement of the animal from front to back of the cage; • 5. Active Time: duration (s/min) of activeness regardless of movement; • 6. Mobile Time: duration (s/min) of mobility; • 7. Rearing Time: duration of any rearing.

[2] = tested on: 12 patients with Niemann-Pick Type C (NPC); details: one-month study, 12 NPC patients (Bremova et al. 2015); cited from earlier work
[3] = tested on: patients with ataxia; details: patients with ataxia (Becker-Bense et al. 2015); cited from earlier work
[4] = tested on: Niemann-Pick A (NPA) patient fibroblasts; assay: Lysosomal volume via LysoTracker; type: cell-based, human; details: 1 mM, 6 days, vs untreated
[5] = tested on: patients with ataxia with oculomotor apraxia type 4; assay: Case study, report of the patients'; type: in vivo, human; details: Ex. 18, youngest sibling, AOA4; reported by parent
Text: In this case study, four patients (male siblings) suffered from, and were later diagnosed with, ataxia with oculomotor apraxia type 4. The older three siblings […], at the time of disease onset. […] The older siblings began treatment with acetyl-leucine […], respectively, and have been on the treatment for approximately four years. No long-term clinical data is available for these three patients.
The youngest sibling was […] at the time of onset. […] No long-term clinical data is available for the youngest sibling.

[6] = tested on: patients with ataxia telangiectasia; assay: Case studies, SARA, SCAFI, visual analog scale and reports; type: in vivo, human
Text: For example, to evaluate overall neurological status, mDRS, a four-domain scale (ambulation, manipulation, language and swallowing), may be applied. Cerebellar function may be evaluated using SARA, an eight-item clinical rating scale (gait, stance, sitting, speech, fine motor function and taxis; range 0-40, where 0 is the best neurological status and 40 the worst), and SCAFI, comprising the 8-m-Walking-Time (8MW; performed by having patients walking twice as quickly as possible from one line to another excluding turning), 9-Hole-Peg-Test (9HPT) and the number of “PATA” repetitions over 10 s. Subjective impairment and quality of life may be evaluated using the EQ-5D-5L questionnaire and VAS. To assess ocular motor function, 3-dimensional videooculography (EyeSeeCam) may be used to measure the peak velocity of saccades, gain of smooth pursuit, peak slow phase velocity of gaze-evoked nystagmus (gaze-holding function), peak slow phase velocity of optokinetic nystagmus, and gain of horizontal vestibulo-ocular reflex. To evaluate the cognitive state, WAIS-R or WISC-W, and MoCA, assessing different cognitive domains, including attention and concentration, executive functions, memory, language, visuoconstructional skills, conceptual thinking, calculations, and orientation with a maximum of 30 points and a cut-off score of 26, may be used. The skilled person will know how to perform these and other such tests.
After one month of treatment, the patient was re-evaluated. […] Examination indicated a Scale for Assessment and Rating of Ataxia (SARA) score of 15.5/40. Results from the patient's Spinocerebellar Ataxia Functional Index (SCAFI) analysis were: • Mean 8-meters Walking Test (8MW): 18.5 s • MW 9-Hole Pegboard Test Dominant (9HPTD) (right): 77.9 s • MW 9-Hole Pegboard Test Non-Dominant (9HPTND): 101.3 s • MW PATA Word Test: 13 • Visual analog scale (as evaluated by the patient): 85
After one month of treatment, the patient was re-evaluated. […] Examination indicated a Scale for Assessment and Rating of Ataxia (SARA) score of 23.5/40.
After slightly over 7 months of treatment, the patient was re-evaluated. […] Examination indicated a Scale for Assessment and Rating of Ataxia (SARA) score of 21.5/40.
After slightly over 1 month of treatment, the patient was re-evaluated. […] The patient also reported that drinking was easier and no longer needed a straw. […] Examination indicated a Scale for Assessment and Rating of Ataxia (SARA) score of 18.5/40.
After about 1 month of treatment, the patient was re-evaluated. […] On medication, they were able to walk with only holding the caregiver's hand.
The patient was evaluated after one month and six months of treatment, respectively. […] The patient, however, was suffering from anxiety, which would be expected to negatively influence the response.

[7] = tested on: patient with frontotemporal dementia with parkinsonism; assay: Case study, clinical examination; type: in vivo, human
Text: After approximately one month of acetyl-leucine treatment, medication was stopped and the patient was re-examined 13 days later.

[8] = tested on: Mucolipidosis Type IIIA (MLIIIA) patient fibroblasts; assay: Lysosomal volume via LysoTracker; type: cell-based, human; details: 1 mM, 6 days, vs untreated
[9] = tested on: Sandhoff disease patient fibroblasts; assay: Glycosphingolipid (GSL) levels via HPLC; type: cell-based, human; details: 1 mM for 6 days
[10] = Ex. 15 Patient 2, after one month
[11] = Ex. 15 Patient 3, after slightly over 7 months
[12] = Ex. 15 Patient 4, after slightly over 1 month
[13] = Ex. 15 Patient 5, after almost 7 months

Structure (SMILES): CC(=O)NC(CC(C)C)C(=O)O (racemic) [acetyl-DL-leucine]
- motor function properties [1]: significantly improved motor function
- ataxia symptoms [2]: symptomatic improvement of ataxia
- brain metabolism (PET) [3]: increased metabolism in the midbrain and lower brainstem in responders
- LysoTracker fluorescence (lysosomal volume) [4]: statistically significant reduction in LysoTracker fluorescence
- fine motor skills and speech compared to older siblings [5]: improved fine motor skills and improved speech
- caregivers' report ([6]; Ex. 15 Patient 1, after one month): improvement of speech and gait
- MW PATA Word Test ([6]; Ex. 15 Patient 1, after one month, before 12.5): 13
- Mean 8-meters Walking Test (8MW) [6, 10]: not able to perform without support
- caregivers' report [6, 10]: improvement of fine motor function, hand tremor, and speech
- MW PATA Word Test ([6]; Ex. 15 Patient 2, after one month, before 13.5): 14
- MW 9-Hole Pegboard Test Non-Dominant (9HPTND) ([6]; Ex. 15 Patient 2, after one month, before 299.2 s): 300 s
- MW 9-Hole Pegboard Test Dominant (9HPTD) (right) ([6]; Ex. 15 Patient 2, after one month, before 300 s): 300 s
- Mean 8-meters Walking Test (8MW) [6, 11]: not able to perform
- caregivers' and patient's report [6, 11]: general improvement of well-being
- MW PATA Word Test ([6]; Ex. 15 Patient 3, after slightly over 7 months, before 14): 10
- Mean 8-meters Walking Test (8MW) [6, 12]: not able to perform
- patient's and parent's report [6, 12]: improvement in handwriting
- mother's report ([6]; Ex. 15 Patient 5, ataxia telangiectasia, 5 g/day, after about 1 month): significant improvement of stability of the gait
- Mean 8-meters Walking Test (8MW) ([6]; Ex. 15 Patient 5, after about 1 month): not able to walk without support
- MW PATA Word Test ([6]; Ex. 15 Patient 5, after about 1 month, before 6): 7.5
- MW PATA Word Test [6, 13]: 11
- mother's report [6, 13]: significantly more stable gait
- clinical re-evaluation ([6]; Ex. 15 Patient 5, after slightly over a year): improved social interaction, activity, and agility
- symptoms ([6]; Ex. 15 Patient 6, ataxia telangiectasia, 1.5 then 3 g/day, after one month): increased fine motor skills with reduced hand tremor
- symptoms ([6]; Ex. 15 Patient 6, after six months): stable general conditions, stable gait and stance, and improved handwriting
- gait ([7]; Ex. 9, frontotemporal dementia with parkinsonism, 3 then 5 gram per day, approximately one month): significant improvement of gait
- speech ([7]; Ex. 9, under therapy): improvement of speech
- falls ([7]; Ex. 9, under therapy, before 2-3 falls per month): the patient's falls stopped
- LysoTracker fluorescence (lysosomal volume) [8]: trend in reducing LysoTracker fluorescence
- GSL levels [9]: trend towards decreased GSL levels
